The record followed here is patent US9724422B2, “Human lactoferrin derived peptide for use as an antigen masking agent” (Evonik Roehm GmbH, priority 2010, dated 2017).

Series [1] in a line: Diffusion kinetics of free hLf fragment (reference), time-correlation confocal microscopy with fluorescent labels. The series is classed as physicochemical. The note with it: hLf alone as reference. The source says:
(§1) 3 different classes of cell-culture and blood derived naturally glycosylated proteins were mixed together in a native, that is, physiologically similar standard electrolyte buffer with the concentration shown in the Table with the same 22-mer of the human-lactoferrin peptides described above (using Sequence […] (SEQ ID NO: 1)).
(§2) The protein I is Albumin a blood protein fraction, known in its recombinant human version or as blood-product, protein II is a selective IgG antibody. Both from commercial sources. hLf as the reference moves as “free” in the volume element of the focus of the microscope whereas about 4% or 15% respectively of the fragment are unspecifically bound and moves slower.

In series [2] the target is T1, Albumin (Bos taurus, UniProt P02769).
T1 construct: purchased
T1 sequence (P02769 25-607): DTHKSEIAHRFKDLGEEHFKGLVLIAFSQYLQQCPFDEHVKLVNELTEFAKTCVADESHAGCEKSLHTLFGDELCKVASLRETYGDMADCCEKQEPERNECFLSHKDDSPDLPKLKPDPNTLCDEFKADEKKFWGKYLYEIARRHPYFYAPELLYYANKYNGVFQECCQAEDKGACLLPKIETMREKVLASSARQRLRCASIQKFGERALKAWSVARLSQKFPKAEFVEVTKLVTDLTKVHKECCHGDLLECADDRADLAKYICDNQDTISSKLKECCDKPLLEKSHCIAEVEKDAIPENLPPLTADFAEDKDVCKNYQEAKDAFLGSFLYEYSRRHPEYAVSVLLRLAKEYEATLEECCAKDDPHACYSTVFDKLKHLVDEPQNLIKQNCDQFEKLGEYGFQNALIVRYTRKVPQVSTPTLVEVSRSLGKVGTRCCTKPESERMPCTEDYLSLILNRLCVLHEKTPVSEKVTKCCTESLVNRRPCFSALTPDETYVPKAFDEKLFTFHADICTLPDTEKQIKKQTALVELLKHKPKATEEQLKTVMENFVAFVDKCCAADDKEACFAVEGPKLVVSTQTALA
The experiment in a line: Diffusion kinetics of hLf fragment mixed with protein, time-correlation confocal microscopy with fluorescent labels. The conditions noted are these: protein I. The series is classed as binding.
Excerpt: as §1, §2

The test system of series [3] is IgG antibody. The series is described as above. The series is classed as binding. The note with it: protein II, selective IgG antibody.
Excerpt: as §1, §2

Series [4] is described as follows: Zeta potential of particles measured with Zetasizer. Format: physicochemical. The note with it: PBS pH 7.4, FIG. 2. The method, then: (§3) Malvern Zetasizer Nano ZS90; Size parameters:
(§4) Material: Protein RI: 1.45 Absorption: 0.00, Dispersant: Water 25° C.: 0.8872 cP RI: 1.330; 37° C.: 0.6864 cP RI: 1.330, Cell: DTS 1060C: Clear disposable zeta cell
(§5) Measurement: Automatic 3 runs, positioning method: seek for optimum position, automatic attention selection, analysis model: general purpose
Zeta parameters: Dielectric constant: 78.5 at 25° C. and 74.4 at 37° C.
Model: Smoluchowski F(KA)value: 1.5, measurement: automatic 3 runs Automatic attention selection
(§6) Peptide oxidation: The peptide was dissolved to a concentration below 1 mM (2.75 mg/mL) in phosphate buffered saline (PBS), pH 7.4. (Ph. Eur.), e.g., 5 mg in 10 mL (=0.5 mg/mL). The solution was purged with pure oxygen for 5 minutes at 37° C. Incubate for 2 h at 37° C.
(§7) For the bacterial lysate dilution 1 mL of bacterial cell lysate were diluted up to 10 mL with PBS pH 7.4. (Ph. Eur.).
(§8) Attachment to the lysate particles was achieved by adding 1 ml bacterial lysate (=1.2 mg E. coli) with 0.097714286 mg hLF.
(§9) 20 μL of a 0.5 mg/mL solution of peptide were added to 1 mL of the previously diluted vaccine (0.12 mg/mL) and incubated 2 hours under low stirring, 100-150 rpm, at 4° C., preventing any foam building

Series [5] can be described thus: Particle size (diameter) measured with Zetasizer. Format: physicochemical. The conditions noted are these: PBS pH 7.4, FIG. 1. The method, then: as §3, §4, §5, §6, §7, §8, §9
Series [6] concerns IgG immuno response. The experiment in a line: Total IgG by ELISA in rats treated with bacterial lysate, hLf fragment or their combination. The series is classed as in vivo. The method, then: Bacterial lysate: Klebsiella pneumoniae CECT 141; 12.000 million bacteria/mL (ten times the final concentration), Standard non-glycerinated formulation, without phenol hLF fragment, […] (SEQ ID NO: 1) oxidised form, as lyophilisate product; dosed in vials of 50 mg each, in 25 mL vials, to be reconstituted and used as stock solution for the length of the assay. Once reconstituted, keep cooled (4° C.)
Reconstitution of the hLF stock solution was performed by reconstitution of the 50 mg hLF fragment in a vial by addition of 20 mL of PBS. It was ensured a complete, proper reconstitution to a clear, homogeneous, particle-free solution. The vial was gently shaken by repeated inversion of the closed vial. The result was the hLF-stock solution for the trial: nominal concentration 2.5 mg/mL.
The hLF dilution for the animal trial was performed daily. For this 1 mL of the reconstituted hLF stock solution were transferred into a new 25 mL vial, followed by adding 21.5 mL of PBS and carefully mixing by repeated inversions of the closed vial to avoid foam formation. The result was the daily stock dilution, nominal concentration 0.1 mg/ml.
4.5 ml of the daily hLf dilution were transferred to a suitable vial (5 ml capacity or bigger), followed by adding 0.5 ml of the 12,000 million bacteria/mL bacterial lysate, and carefully mixing by repeated inversions of the closed vial to avoid foam formation. The result was 5 ml of A+B vaccine, 1200 million bacteria/ml, 0.1 mg hLf fragment/ml, ensuring the ratio 12:1.
4.5 ml of the daily hLf dilution were transferred to a suitable vial (5 ml capacity or bigger), followed by adding 0.5 ml of PBS and carefully mixing by repeated inversions of the closed vial and avoid foam formation. The result was 5 ml of 0.1 mg/ml hLf fragment solution.
0.5 ml of the bacterial lysate (12,000 million bacteria/ml) were transferred to a suitable vial (5 ml capacity or bigger), followed by adding 4.5 ml of PBS, and carefully mixing by repeated inversions of the closed vial and avoid foam formation. […]
The parameter to be measured is total IgG. […]
Background: In an ELISA, binding on a coated surface is turned into a signal by an enzyme label.

Turning to “KCFQWQRNMRKVRGPPVSCIKR (listed as Homo sapiens) [hLf, human lactoferrin derived peptide, 22-mer, used as antigen masking agent]”, in series [1], the TauD1 turned out to be 33 us, the TauD2 is listed as 1419 us and the f1 came to 99%. Besides, in series [2], the “fragment unspecifically bound (moves slower)” value was “about 4%”. Besides, the “fragment unspecifically bound (moves slower)” value in series [3] is on record as roughly 15%. Also, the “Zeta potential (surface charge of particles)” value in series [4] is “overall positive charge”. In series [5], the “Particle size (aggregation)” value is “Aggregation is prone to occur”. The “Variation in the IgG levels over time” value in series [6] (independent of the mode of administration (i.p. or intragastric), days 0-27) is “does not appear to induce any effect on IgG levels over time”. The “IgG levels compared with hLf+extract group” value in series [6] (intragastric, day 6) is reported as “superior IgG levels”. The “IgG levels compared with control group” value in series [6] (intraperitoneal, day 6 to day 27) is on record as “no statistically significant difference”.
